From ChEMBL document CHEMBL5038591, “Identification of a Novel TAR RNA-Binding Protein 2 Modulator with Potential Therapeutic Activity against Hepatocellular Carcinoma” (J Med Chem, 2021)
pIC50: −log10 of the molar value. Active and inactive are the calls of the source. The calls are words filed in the database; no cut-off is given here.

Key:
HeLa [1] = test: Inhibition of colony formation in human HeLa cells at 30 uM incubated for 14 days by crystal violet staining based assay; type: functional, cell-based; details: time 14.0 day
MHCC97 [2] = test: Antimetastatic activity against human MHCC97 cells xenografted in SCID mouse assessed as decrease in liver metastasis at 40 mg/kg, ip administered once every 3 days and measured after 10 days; type: functional, organism-based; details: time 10.0 day
SK-HEP1 [3] = test: Effect on human SK-HEP1 cells assessed as decrease in miR-224-5p level at 10 to 50 uM by qRT-PCR analysis; type: functional, cell-based; details: dose 10-50 µM
[4] = molecular target: Transcription factor p65 (Homo sapiens) (UniProt Q04206); test: Inhibition of p65 phosphorylation in human SK-HEP1 cells at 30 uM by Western blot analysis; type: cell-based
MDA-MB-231 [5] = test: Inhibition of colony formation in human MDA-MB-231 cells at 30 uM incubated for 14 days by crystal violet staining based assay; type: functional, cell-based; details: time 14.0 day
MHCC97 [6] = test: Antimetastatic activity against human MHCC97 cells xenografted in SCID mouse assessed as decrease in liver metastasis at 20 mg/kg, ip administered once every 3 days and measured after 10 days; type: functional, organism-based; details: time 10.0 day
HCT-116 [7] = test: Antiproliferative activity against human HCT-116 cells at 25 uM incubated for 24 hrs by alamar blue assay; type: functional, cell-based
Mus musculus [8] = test: Downregulation of CDC20 expression in mouse liver at 40 mg/kg measured after 30 days by immunohistochemical staining analysis; type: functional, organism-based; details: time 30.0 day
Huh-7 [9] = test: Antiproliferative activity against human Huh-7 cells incubated for 24 hrs by alamar blue assay; details: Huh-7, 24 h
MHCC97 [10] = test: Antiproliferative activity against human MHCC97 cells at 25 uM incubated for 24 hrs by alamar blue assay; type: functional, cell-based
[11] = molecular target: Signal transducer and activator of transcription 3 (Homo sapiens) (UniProt P40763); test: Inhibition of STAT3 phosphorylation in human SK-HEP1 cells at 30 uM by Western blot analysis; type: cell-based
MDA-MB-231 [12] = test: Antiproliferative activity against human MDA-MB-231 cells at 25 uM incubated for 24 hrs by alamar blue assay; type: functional, cell-based
[13] = molecular target: T1, Inhibitor of nuclear factor kappa-B kinase subunit beta (Homo sapiens) (UniProt O14920); test: Inhibition of IkappaB phosphorylation in human SK-HEP1 cells at 30 uM by Western blot analysis; type: cell-based
T1 sequence (whole entry): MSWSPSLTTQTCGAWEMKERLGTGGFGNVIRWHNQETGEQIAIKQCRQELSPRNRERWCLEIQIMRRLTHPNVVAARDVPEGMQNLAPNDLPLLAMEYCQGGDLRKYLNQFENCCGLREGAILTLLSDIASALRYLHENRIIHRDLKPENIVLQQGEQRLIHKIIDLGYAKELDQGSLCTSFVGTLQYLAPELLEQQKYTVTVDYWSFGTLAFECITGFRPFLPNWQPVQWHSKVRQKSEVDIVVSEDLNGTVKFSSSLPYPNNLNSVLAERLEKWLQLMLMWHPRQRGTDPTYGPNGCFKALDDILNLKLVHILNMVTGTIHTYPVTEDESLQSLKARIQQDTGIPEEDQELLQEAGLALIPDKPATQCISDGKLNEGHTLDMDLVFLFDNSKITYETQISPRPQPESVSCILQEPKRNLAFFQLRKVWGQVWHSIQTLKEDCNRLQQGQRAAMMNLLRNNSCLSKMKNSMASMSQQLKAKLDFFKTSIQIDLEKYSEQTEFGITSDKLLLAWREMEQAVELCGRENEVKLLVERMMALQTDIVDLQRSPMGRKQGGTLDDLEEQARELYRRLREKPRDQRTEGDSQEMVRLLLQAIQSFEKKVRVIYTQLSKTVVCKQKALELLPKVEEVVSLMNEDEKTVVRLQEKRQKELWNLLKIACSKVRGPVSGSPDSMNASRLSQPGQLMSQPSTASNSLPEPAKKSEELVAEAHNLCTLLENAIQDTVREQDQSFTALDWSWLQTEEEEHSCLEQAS

SK-HEP1 [14] = test: Antiproliferative activity against human SK-HEP1 cells assessed as increase in miR-10a-5p level at 20 uM by qRT-PCR analysis; type: functional, cell-based
SK-HEP1 [15] = test: Inhibition of cell invasion in human SK-HEP1 cells at 30 uM incubated for 12 hrs by crystal violet staining based transwell assay; type: functional
SK-HEP1 [16] = test: Antiproliferative activity against human SK-HEP1 cells incubated for 24 hrs by alamar blue assay; type: functional, cell-based; details: SK-HEP1, 24 h
Mus musculus [17] = test: Downregulation of KIF14 expression in mouse liver at 40 mg/kg measured after 30 days by immunohistochemical staining analysis; type: functional, organism-based; details: time 30.0 day
HeLa [18] = test: Antiproliferative activity against human HeLa cells assessed as increase in miR-21 biogenesis level measured after 24 hrs by luciferase assay; type: functional, cell-based
MDA-MB-231 [19] = test: Antiproliferative activity against human MDA-MB-231 cells incubated for 24 hrs by alamar blue assay; details: MDA-MB-231, 24 h
SK-HEP1 [20] = test: Inhibition of colony formation in human SK-HEP1 cells at 10 to 50 uM incubated for 14 days by crystal violet staining based assay; type: functional, cell-based; details: dose 10-50 µM, time 14.0 day
HeLa [21] = test: Antiproliferative activity against human HeLa cells at 25 uM incubated for 24 hrs by alamar blue assay; type: functional, cell-based
MHCC97 [22] = test: Antiproliferative activity against human MHCC97 cells incubated for 24 hrs by alamar blue assay; details: MHCC97, 24 h
SK-HEP1 [23] = test: Effect on human SK-HEP1 cells assessed as decrease in miR-10b-5p level at 10 to 50 uM by qRT-PCR analysis; type: functional, cell-based; details: dose 10-50 µM
Huh-7 [24] = test: Inhibition of colony formation in human Huh-7 cells at 30 uM incubated for 14 days by crystal violet staining based assay; type: functional, cell-based; details: time 14.0 day
MHCC97 [25] = test: Inhibition of colony formation in human MHCC97H cells at 30 uM incubated for 14 days by crystal violet staining based assay; type: functional, cell-based; details: time 14.0 day
SK-HEP1 [26] = test: Antiproliferative activity against human SK-HEP1 cells assessed as decrease in miR135a-5p level at 20 uM by qRT-PCR analysis; type: functional, cell-based
SK-HEP1 [27] = test: Induction of apoptosis in human SK-HEP1 cells at 30 uM incubated for 24 hrs by Annexin V-FITC/PI staining based flow cytometry; type: functional, cell-based
HCT-116 [28] = test: Antiproliferative activity against human HCT-116 cells incubated for 24 hrs by alamar blue assay; details: HCT-116, 24 h
SK-HEP1 [29] = test: Effect on Dicer protein expression in human SK-HEP1 cells at 30 uM after 24 hrs by immunoblot analysis; type: functional, cell-based
SK-HEP1 [30] = test: Antiproliferative activity against human SK-HEP1 cells assessed as increase in miR-222-5p level at 20 uM by qRT-PCR analysis; type: functional, cell-based
SK-HEP1 [31] = test: Inhibition of cell migration in human SK-HEP1 cells knockdown TRBP at 20 uM measured after 12 hrs using crystal violet staining inverted microscope based transwell assay; type: functional
SK-HEP1 [32] = test: Antiproliferative activity against human SK-HEP1 cells assessed as increase in miR-122-5p level at 20 uM by qRT-PCR analysis; type: functional, cell-based
HepG2 = test: Inhibition of colony formation in human HepG2 cells at 30 uM incubated for 14 days by crystal violet staining based assay; type: functional, cell-based; details: time 14.0 day

Sequence of Signal transducer and activator of transcription 3 (Homo sapiens) (P40763 whole entry): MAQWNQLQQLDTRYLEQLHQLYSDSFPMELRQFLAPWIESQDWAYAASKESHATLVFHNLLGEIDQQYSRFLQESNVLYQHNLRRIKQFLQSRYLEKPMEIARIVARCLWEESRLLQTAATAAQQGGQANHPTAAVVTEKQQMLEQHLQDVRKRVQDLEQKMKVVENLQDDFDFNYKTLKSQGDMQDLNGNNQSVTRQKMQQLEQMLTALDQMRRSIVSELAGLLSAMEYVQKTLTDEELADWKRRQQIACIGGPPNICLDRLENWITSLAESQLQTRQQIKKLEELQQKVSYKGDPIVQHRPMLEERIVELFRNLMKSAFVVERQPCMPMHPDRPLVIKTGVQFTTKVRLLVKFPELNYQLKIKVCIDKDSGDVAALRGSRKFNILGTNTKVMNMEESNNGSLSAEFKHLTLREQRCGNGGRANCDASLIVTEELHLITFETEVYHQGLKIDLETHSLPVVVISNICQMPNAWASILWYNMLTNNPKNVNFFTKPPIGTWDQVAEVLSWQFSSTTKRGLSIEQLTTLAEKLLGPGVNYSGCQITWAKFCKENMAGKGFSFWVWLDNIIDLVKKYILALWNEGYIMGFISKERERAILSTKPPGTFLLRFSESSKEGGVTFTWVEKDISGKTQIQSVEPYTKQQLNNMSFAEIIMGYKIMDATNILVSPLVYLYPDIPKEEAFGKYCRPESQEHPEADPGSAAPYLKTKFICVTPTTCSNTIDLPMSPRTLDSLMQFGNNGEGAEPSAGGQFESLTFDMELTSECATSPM
Sequence of Transcription factor p65 (Homo sapiens) (Q04206 whole entry): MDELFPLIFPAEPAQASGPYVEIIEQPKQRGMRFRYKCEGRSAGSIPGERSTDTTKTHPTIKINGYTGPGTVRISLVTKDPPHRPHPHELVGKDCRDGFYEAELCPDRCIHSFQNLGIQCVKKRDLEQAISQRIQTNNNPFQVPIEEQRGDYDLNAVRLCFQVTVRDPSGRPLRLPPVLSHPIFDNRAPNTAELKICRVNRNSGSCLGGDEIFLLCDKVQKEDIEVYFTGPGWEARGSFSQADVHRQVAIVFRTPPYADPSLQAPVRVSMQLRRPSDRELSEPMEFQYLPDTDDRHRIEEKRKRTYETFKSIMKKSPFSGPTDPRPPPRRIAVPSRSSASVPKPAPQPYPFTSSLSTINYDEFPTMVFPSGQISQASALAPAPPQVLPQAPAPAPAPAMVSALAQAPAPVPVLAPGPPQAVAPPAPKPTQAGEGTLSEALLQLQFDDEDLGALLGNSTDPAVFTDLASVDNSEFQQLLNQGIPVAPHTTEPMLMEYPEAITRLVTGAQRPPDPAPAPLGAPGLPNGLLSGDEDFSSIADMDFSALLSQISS

inhibition [4]: Active
pIC50 (Huh-7 [9]): 4.49
inhibition [11]: inactive
inhibition [13]: Active
pIC50 (SK-HEP1 [16]): 4.69
pIC50 (HeLa [18]): 4.77
pIC50 (MDA-MB-231 [19]): 4.25
pIC50 (HCT-116 [28]): 4.26
Structure (SMILES): COc1cc2c(c(O)c1OC)-c1c(cc3c(c1OC)OCO3)C[C@H](C)[C@H](C)C2
inhibition (HeLa [1]): Active
Activity (MHCC97 [2]): Active
Activity (SK-HEP1 [3]): Active
inhibition (MDA-MB-231 [5]): Active
Activity (MHCC97 [6]): inactive
Activity (HCT-116 [7]): inactive
Activity (Mus musculus [8]): Active
Activity (MHCC97 [10]): Active
Activity (MDA-MB-231 [12]): inactive
Activity (SK-HEP1 [14]): inactive
inhibition (SK-HEP1 [15]): Active
Activity (Mus musculus [17]): Active
inhibition (SK-HEP1 [20]): Active
Activity (HeLa [21]): Active
pIC50 (MHCC97 [22]): 4.61
Activity (SK-HEP1 [23]): Active
inhibition (Huh-7 [24]): Active
inhibition (MHCC97 [25]): Active
Activity (SK-HEP1 [26]): inactive
Activity (SK-HEP1 [27]): inactive
Activity (SK-HEP1 [29]): inactive
Activity (SK-HEP1 [30]): inactive
inhibition (SK-HEP1 [31]): inactive
Activity (SK-HEP1 [32]): Active
inhibition (HepG2): Active
